In US20100069366A1, “ANTIBACTERIAL QUINOLINE DERIVATIVES” (JANSSEN-CILAG, priority 2006, published 2010):
Converted amounts (≈) assume the structure as drawn. Where two headings read alike, the source gives them in different places.

Key:
Type in all cases: cell-based
[1] = test system: Pseudomonas aeruginosa (ATCC27853); experiment: Microtitre plate assay, IC90 determination, PAE 27853
Protocol: (§1) The bacteria used in this study were grown overnight in flasks containing 100 ml Mueller-Hinton Broth (Becton Dickinson—cat. no. 275730) in sterile de-ionized water, with shaking, at 37° C. Stocks (0.5 ml/tube) were stored at −70° C. until use. Bacteria titrations were performed in microtiter plates to detect the TCID50, in which the TCID50 represents the dilution that gives rise to bacterial growth in 50% of inoculated cultures.
(§2) In general, an inoculum level of approximately 100 TCID50 was used for susceptibility testing.
(§3) Flat-bottom, sterile 96-well plastic microtiter plates were filled with 180 μl of sterile deionized water, supplemented with 0.25% BSA. Subsequently, stock solutions (7.8× final test concentration) of compounds were added in 45 μl volumes in column 2 Serial five-fold dilutions (45 μl in […]) were made directly in the microtiter plates from column 2 to reach column 11. Untreated control samples with (column 1) and without (column 12) inoculum were included in each microtiter plate. Depending on the bacteria type, approximately 10 to 60 CFU per well of bacteria inoculum (100 TCID50), in a volume of 100 μl in 2.8× Mueller-Hinton broth medium, was added to the rows A to H, except column 12. The same volume of broth medium without inoculum was added to column 12 in row A to H. The cultures were incubated at 37° C. for 24 hours under a normal atmosphere (incubator with open air valve and continuous ventilation). At the end of incubation, one day after inoculation, the bacterial growth was quantitated fluorometrically. Therefore resazurin (0.6 mg/ml) was added in a volume of 20 μl to all wells 3 hours after inoculation, and the plates were re-incubated overnight. A change in colour from blue to pink indicated the growth of bacteria. The fluorescence was read in a computer-controlled fluorometer (Cytofluor Biosearch) at an excitation wavelength of 530 nm and an emission wavelength of 590 nm. The % growth inhibition achieved by the compounds was calculated according to standard methods.

[2] = test system: Staphylococcus aureus (ATCC29213); experiment: Microtitre plate assay, IC90 determination, STA 29213
Protocol: as §1, §2, §3

[3] = test system: Enterococcus faecalis (ATCC29212); experiment: Microtitre plate assay, IC90 determination, EFA 29212
Protocol: as §1, §2, §3

[4] = test system: Streptococcus pneumoniae (ATCC6305); experiment: Microtitre plate assay, IC90 determination, SPN 6305; conditions: 90% inhibitory concentration for bacterial growth, resazurin
Protocol: as §1, §2, §3

[5] = test system: Streptococcus pyogens (ATCC8668); experiment: Microtitre plate assay, IC90 determination, SPY 8668
Protocol: as §1, §2, §3

M. Smegmatis ATCC607 = experiment: In-vitro anti-bacterial activity against strain M. smegmatis ATCC607; conditions: for IC90: Mycolicibacterium smegmatis
Protocol: Flat-bottom, sterile 96-well plastic microtiter plates were filled with 180 μl of sterile deionized water, supplemented with 0.25% BSA. Subsequently, stock solutions (7.8× final test concentration) of compounds were added in 45 μl volumes to a series of duplicate wells in column 2 so as to allow evaluation of their effects on bacterial growth. Serial five-fold dilutions (45 μl in 180 μl) were made directly in the microtiter plates from column 2 to 11 using a customised robot system (Zymark Corp., Hopkinton, Mass.). Pipette tips were changed after every 3 dilutions to minimize pipetting errors with high hydrophobic compounds. Untreated control samples with (column 1) and without (column 12) inoculum were included in each microtiter plate. Approximately 250 CFU per well of bacteria inoculum, in a volume of 100 μl in 2.8× Mueller-Hinton broth medium, was added to the rows A to H, except column 12. The same volume of broth medium without inoculum was added to column 12 in row A to H. The cultures were incubated at 37° C. for 48 hours in a humidified 5% CO2 atmosphere (incubator with open air valve and continuous ventilation). At the end of incubation, two days after inoculation, the bacterial growth was quantitated fluorometrically. Therefore Alamar Blue (10×) was added to all wells in a volume of 20 μl and plates were incubated for another 2 hours at […]
The fluorescence was read in a computer-controlled fluorometer (Cytofluor, Biosearch) at an excitation wavelength of 530 nm and an emission wavelength of 590 nm (gain 30).

[6] = test system: methicilline resistant Staphylococcus aureus (MRSA) (a clinical isolate from the University of Antwerp); experiment: Microtitre plate assay, IC90 determination, STA RMETH; conditions: Staphylococcus aureus, 90% inhibitory concentration for bacterial growth, resazurin, read-out: IC90 (μg/ml) STA RMETH
Protocol: as §1, §2, §3

[7] = test system: Staphylococcus aureus (ATCC25923); experiment: Microtitre plate assay, IC90 determination, STA 25923
Protocol: as §1, §2, §3

[8] = Pseudomonas aeruginosa ATCC27853, 90% inhibitory concentration for bacterial growth, resazurin
[9] = Staphylococcus aureus ATCC29213, 90% inhibitory concentration for bacterial growth, resazurin
[10] = Enterococcus faecalis ATCC29212, 90% inhibitory concentration for bacterial growth, resazurin
[11] = Streptococcus pneumoniae ATCC6305
[12] = Streptococcus pyogens ATCC8668, 90% inhibitory concentration for bacterial growth, resazurin
[13] = 90% inhibitory concentration for bacterial growth, 48 hours, Alamar Blue fluorescence
[14] = Pseudomonas aeruginosa ATCC27853, 90% inhibitory concentration for bacterial growth, resazurin, read-out: IC90 (μg/ml) PAE 27853
[15] = Staphylococcus aureus ATCC29213, 90% inhibitory concentration for bacterial growth, resazurin, read-out: IC90 (μg/ml) STA 29213
[16] = Enterococcus faecalis ATCC29212, 90% inhibitory concentration for bacterial growth, resazurin, read-out: IC90 (μg/ml) EFA 29212
[17] = Staphylococcus aureus ATCC25923, 90% inhibitory concentration for bacterial growth, resazurin, read-out: IC90 (μg/ml) STA 25923
[18] = Streptococcus pneumoniae ATCC6305, read-out: IC90 (μg/ml) SPN 6305
[19] = Streptococcus pyogens ATCC8668, 90% inhibitory concentration for bacterial growth, resazurin, read-out: IC90 (μg/ml) SPY 8668
[20] = ATCC607, 90% inhibitory concentration for bacterial growth, 48 hours, Alamar Blue fluorescence, read-out: M. smegmatis IC90
[21] = Pseudomonas aeruginosa, ATCC27853, read-out: IC90 (μg/ml) PAE 27853
[22] = Enterococcus faecalis, ATCC29212, read-out: IC90 (μg/ml) EFA 29212
[23] = Streptococcus pneumoniae, ATCC6305, read-out: IC90 (μg/ml) SPN 6305, Streptococcus pneumoniae ATCC6305
[24] = Streptococcus, ATCC8668, read-out: IC90 (μg/ml) SPY 8668
[25] = ATCC607, 48 h, read-out: M. smegmatis IC90 (μg/ml), 90% inhibitory concentration for bacterial growth, Alamar Blue fluorescence

IC90 [1, 14]	IC90 [2, 15]	IC90 [3, 16]	IC90 [4, 18]	IC90 [5, 19]	SMILES	IC90 (μg/ml) PAE 27853 [1, 8]	IC90 (μg/ml) STA 29213 [2, 9]	IC90 (μg/ml) EFA 29212 [3, 10]	IC90 (μg/ml) SPN 6305 [4, 11]	IC90 (μg/ml) SPY 8668 [5, 12]	M. smegmatis IC90 (M. Smegmatis ATCC607; [13])	IC90 (M. Smegmatis ATCC607; [20])	other results
–	–	–	–	–	COc1nc2ccc(-c3ccccc3)cc2cc1C(C(=CCN(C)C)c1cccc2ccccc12)c1ccccc1 (mixture of isomers) [Compound 32]	3.79 µg/mL	1.69 µg/mL	9.51 µg/mL	1.9 µg/mL	3.79 µg/mL	1.69 µg/mL	–	–
–	–	–	–	–	COc1nc2ccc(Br)cc2cc1C(=C(C)CCN(C)C)c1ccccc1 (mixture of isomers) [Compound 35]	15.09 µg/mL	33.79 µg/mL	15.09 µg/mL	1.35 µg/mL	1.35 µg/mL	3.79 µg/mL	–	–
–	–	–	–	–	COc1nc2ccc(Br)cc2cc1C(C(=CCN(C)C)c1cccc(F)c1)c1ccccc1 (racemic) [Compound 25]	40.15 µg/mL (≈ 79.4 µM)	22.58 µg/mL (≈ 44.7 µM)	40.15 µg/mL (≈ 79.4 µM)	8.01 µg/mL (≈ 15.8 µM)	17.93 µg/mL (≈ 35.5 µM)	40.15 µg/mL	–	–
–	–	–	–	–	COc1nc2ccc(C)cc2cc1C(C(=CCN(C)C)c1ccccc1)c1ccccc1 (racemic) [Compound 30]	13.36 µg/mL (≈ 31.6 µM)	6.7 µg/mL (≈ 15.9 µM)	11.91 µg/mL (≈ 28.2 µM)	1.34 µg/mL (≈ 3.17 µM)	6.7 µg/mL (≈ 15.9 µM)	2.67 µg/mL	–	–
–	–	–	–	–	CSc1nc2ccc(-c3ccccc3)cc2cc1C(=C(CCN(C)C)c1ccccc1)c1ccccc1 (single isomer, unassigned) [Compound 40]	–	19.93 µg/mL (≈ 39.8 µM)	15.83 µg/mL (≈ 31.6 µM)	3.98 µg/mL (≈ 7.95 µM)	7.94 µg/mL (≈ 15.9 µM)	1.58 µg/mL	–	–
9.56 µg/mL (≈ 17.8 µM)	2.69 µg/mL (≈ 5 µM)	10.7 µg/mL (≈ 19.9 µM)	9.56 µg/mL (≈ 17.8 µM)	10.7 µg/mL (≈ 19.9 µM)	COc1nc2ccc(Br)cc2cc1/C(=C(/CCN(C)C)c1cccc2ccccc12)c1ccccc1 [Compound 9]	–	–	–	–	–	–	1.7 µg/mL (≈ 3.16 µM)	IC90 [6]: 3.81 µg/mL (≈ 7.09 µM); IC90 [7, 17]: 5.38 µg/mL (≈ 10 µM)
21.4 µg/mL (≈ 39.8 µM)	4.79 µg/mL (≈ 8.91 µM)	5.38 µg/mL (≈ 10 µM)	12 µg/mL (≈ 22.4 µM)	9.56 µg/mL (≈ 17.8 µM)	COc1nc2ccc(Br)cc2cc1C(/C(=C/CN(C)C)c1cccc2ccccc12)c1ccccc1 (stereo not drawn) [Compound 10]	–	–	–	–	–	–	0.43 µg/mL (≈ 0.8 µM)	IC90 [6]: 12 µg/mL (≈ 22.4 µM); IC90 [7, 17]: 4.27 µg/mL (≈ 7.94 µM)
–	–	–	–	–	COc1nc2ccc(-c3ccccc3)cc2cc1C(/C(=C/CN(C)C)c1ccccc1)c1ccccc1 (stereo not drawn) [Compound 11]	–	–	–	–	–	–	–	IC90 [1, 21]: 7.68 µg/mL (≈ 15.8 µM); IC90 ([2]; Staphylococcus aureus, ATCC29213, read-out: IC90 (μg/ml) STA 29213): 1.53 µg/mL (≈ 3.16 µM); IC90 [3, 22]: 15.3 µg/mL (≈ 31.6 µM); IC90 [4, 23]: 1.22 µg/mL (≈ 2.52 µM); IC90 [5, 24]: 7.68 µg/mL (≈ 15.8 µM); IC90 (M. Smegmatis ATCC607; [25]): 1.53 µg/mL (≈ 3.16 µM)
–	–	–	–	–	COc1nc2ccc(Br)cc2cc1C(/C(=C/CN(C)C)CCc1ccccc1)c1ccccc1 (stereo not drawn) [Compound 13]	–	–	–	–	–	–	–	IC90 [1, 21]: 12.2 µg/mL (≈ 23.7 µM); IC90 [3, 22]: 12.2 µg/mL (≈ 23.7 µM); IC90 ([7]; Staphylococcus aureus, ATCC25923, read-out: IC90 (μg/ml) STA 25923): 10.9 µg/mL (≈ 21.2 µM); IC90 [4, 23]: 8.67 µg/mL (≈ 16.8 µM); IC90 [5, 24]: 9.73 µg/mL (≈ 18.9 µM); IC90 (M. Smegmatis ATCC607; [25]): 1.73 µg/mL (≈ 3.36 µM)
37.9 µg/mL (≈ 89.1 µM)	33.8 µg/mL (≈ 79.4 µM)	37.9 µg/mL (≈ 89.1 µM)	1.35 µg/mL (≈ 3.17 µM)	26.8 µg/mL (≈ 63.1 µM)	COc1nc2ccc(Br)cc2cc1C(/C(C)=C/CN(C)C)c1ccccc1 (stereo not drawn) [Compound 14]	–	–	–	–	–	–	1.35 µg/mL (≈ 3.17 µM)	–
